Source: paper PMC7515912, “Structural insight into the binding of human galectins to corneal keratan sulfate, its desulfated form and related saccharides” (Scientific Reports, 2020)
Like-named read-outs stand apart in the source and are kept apart here. Each block holds one compound with its values, some of them ahead of it.

How the values were obtained:
Gal-7 = biological target: T1, Gal-7 (Homo sapiens, UniProt P47929); assay: 1H-15N HSQC NMR titration of 15N-labeled Gal-7; assay type: binding
T1 construct: made in house
Procedure: (§1) Uniformly ^15N-labeled Gal-3 (or Gal-7) was dissolved at a concentration of 20 μM in 20 mM potassium phosphate buffer at pH 6.9, made up using a 95% H2O/ 5% D2O mixture. ^1H–^15N HSQC NMR experiments were used to investigate binding of KS or KSDS to Gal-3[39] and Gal-7[90]. NMR experiments were performed at 30 °C on Bruker AVANCE III 700 MHz or 850 MHz spectrometers equipped with cryogenically-cooled z-gradient triple resonance probes. Chemical shift perturbations were monitored, using the sequence-specific ^1H and ^15N resonances assignments for human Gal-3, Gal-3 CRD, and Gal-7. Chemical shifts were internally referenced to DSS (4,4-dimethyl-4-silapentane-1-sulfonic acid). Raw data were converted and processed by using NMRPipe[91] and were analyzed by using NMRview[92].
Chemical shifts, δ, were referenced to 4,4-dimethyl-4-silapentane-1-sulfonic acid, and chemical shift differences (∆δ) were calculated as [(∆^1H)^2 + (0.25∆^15N)^2 ]^1/2. Intensity changes (∆Intensity) were calculated as (1 − Inti/Into), where Into is the initial resonance intensity and Inti is the intensity upon addition of KS or KSDS or another saccharide. Using this equation, a value of 1 means that that resonance is no longer observable, and 0 means the absence of resonance broadening, with a negative value indicating increased resonance intensity. […]

[1] = biological target: T2, Gal-3 FL (full-length human Gal-3, residues 1–250) (Homo sapiens, UniProt P17931); assay: 1H-15N HSQC NMR titration of 15N-labeled full-length Gal-3; assay type: binding
T2 construct: Full-length human Gal-3 (residues 1–250); made in house
Procedure: as §1
(§2) Chemical shifts, δ, were referenced to 4,4-dimethyl-4-silapentane-1-sulfonic acid, and chemical shift differences (∆δ) were calculated as [(∆^1H)^2 + (0.25∆^15N)^2 ]^1/2. Intensity changes (∆Intensity) were calculated as (1 − Inti/Into), where Into is the initial resonance intensity and Inti is the intensity upon addition of KS or KSDS or another saccharide. Using this equation, a value of 1 means that that resonance is no longer observable, and 0 means the absence of resonance broadening, with a negative value indicating increased resonance intensity. In chemical shift or resonance broadening maps, the most perturbed resonances are defined as > 2SD above the average or > 1SD above the average. The 50% bound mark was taken from titration curves at 50% bound.

[2] = biological target: T3, Gal-3 CRD (residues 108–250) (Homo sapiens, UniProt P17931); assay: 1H-15N HSQC NMR titration of 15N-labeled Gal-3 CRD; assay type: binding
T3 construct: its Gal-3 CRD (residues 108–250); made in house
Procedure: as §1, §2

[3] = PFG NMR self-diffusion of KS alone; assay type: physicochemical; conditions: KS 4 μM in the absence of Gal-3; 20 mM potassium phosphate in 2H2O, pD 6.7, 30 °C
Procedure: (§3) For pulsed field gradient (PFG) NMR self-diffusion measurements, a solution was made up with KS (4 μM) in 20 mM potassium phosphate buffer with ^2H2O at pD 6.7 adjusted by addition of NaO^2H or ^2HCl. To this solution, ^15N/^13C-labeled Gal-3 (full-length and CRD) dissolved in the same buffer was added at increasing concentrations as molar ratios of [Gal-3]/[KS]. PFG NMR data were acquired at 30 ◦C on a Bruker AVANCE 700 spectrometer, essentially as previously described. For unrestricted diffusion of molecules in isotropic solutions, the PFG NMR signal amplitude, A, normalized to the signal in the absence of gradient pulses, is related to the diffusion coefficient D by Eq. (1):1 A=exp[-γ^2g^2Δ^2D(Δ-[…])]
(§4) where γ is the gyromagnetic ratio, g is the magnitude of the magnetic field gradient pulse, ∆ is the time between gradient pulses. Here, we set g = 1–75 G/cm, ∆ = 34.2 ms, with a longitudinal eddy-current delay of 100 ms. Each D value was determined from a series of 14 1D PFG NMR spectra (256 scans each) using different g values. To derive D values, the gradient-induced change in amplitude of KS resonances at 3.64 and 3.7 ppm was used. In this spectral region, KS resonance intensity was considerably greater than that from Gal-3. In order to decrease Gal-3 resonance intensity further, ^13CH and ^15NH resonances from labeled Gal-3 were not decoupled.

[4] = biological target: Gal-3 (full-length and CRD) (Homo sapiens, UniProt P17931); assay: PFG NMR diffusion of KS as a function of Gal-3/KS molar ratio; assay type: binding
Procedure: as §3, §4

T3 sequence (P17931 108-250): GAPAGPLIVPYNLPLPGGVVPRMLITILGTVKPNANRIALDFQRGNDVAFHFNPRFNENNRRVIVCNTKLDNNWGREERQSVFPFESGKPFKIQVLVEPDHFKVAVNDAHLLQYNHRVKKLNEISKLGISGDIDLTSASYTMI
T2 sequence (P17931 whole entry, the tested form may be a part): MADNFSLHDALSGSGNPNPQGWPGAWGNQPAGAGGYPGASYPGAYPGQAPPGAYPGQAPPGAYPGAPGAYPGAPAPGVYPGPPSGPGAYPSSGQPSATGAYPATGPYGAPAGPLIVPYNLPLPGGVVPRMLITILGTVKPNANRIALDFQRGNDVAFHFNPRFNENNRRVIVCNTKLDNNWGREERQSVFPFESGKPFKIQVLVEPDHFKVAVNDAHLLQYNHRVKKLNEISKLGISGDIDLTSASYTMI
T1 sequence (P47929 whole entry): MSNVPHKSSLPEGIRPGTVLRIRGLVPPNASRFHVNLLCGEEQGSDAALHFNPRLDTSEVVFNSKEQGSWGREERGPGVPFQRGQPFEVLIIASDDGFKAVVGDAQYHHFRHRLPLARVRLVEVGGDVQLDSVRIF
Gal-3 (full-length and CRD), sequence (P17931 108-250 limits assumed): as the sequence (P17931 108-250) above

Compound: CC(=O)N[C@H]1[C@H](O[C@H]2[C@@H](O)[C@@H](CO)O[C@@H](O[C@H]3[C@H](O)[C@@H](O)C(O)O[C@@H]3CO)[C@@H]2O)O[C@H](CO)[C@@H](O)[C@@H]1O[C@@H]1O[C@H](CO)[C@H](O)[C@H](O)[C@H]1O (some centres unmarked) [LNT, lacto-N-tetraose, reference compound]
Kd (Gal-7; fast exchange, from average ∆δ vs ligand concentration, Gal-7, pH 6.9, 30 °C, read-out: KD): ~500 µM

Compound: CC(=O)N[C@H]1C(O)O[C@H](CO)[C@@H](O[C@@H]2O[C@H](CO)[C@H](O)[C@H](O)[C@H]2O)[C@@H]1O (some centres unmarked) [LacNAc, N-acetyllactosamine, reference compound]
Kd ([1]; fast exchange, from chemical shifts vs ligand concentration, Gal-3 FL 20 μM, pH 6.9, 30 °C, read-out: KD): 190 µM
Kd ([2]; fast exchange, from chemical shifts vs ligand concentration, Gal-3 CRD 20 μM, pH 6.9, 30 °C, read-out: KD): 380 µM

diffusion coefficient D [3]: 0.92 × 10^–6 cm^2/s^-1
Kd ([1]; 2 μM × 17 sites, assumes the same stoichiometry as KSDS, Gal-3 FL, read-out: site-average microscopic KD): 34 µM
Kd ([1]; apparent affinity/avidity from average ∆δ vs ligand concentration, 20 μM Gal-3 FL, 20 mM KPhos, pH 6.9, 30 °C, read-out: 50% change in chemical shift / 50% lectin bound (ligand concentration)): ~2 µM
Kd (Gal-7; binding avidity estimated from average ∆δ vs glycosaminoglycan concentration, 20 μM Gal-7, pH 6.9, 30 °C, read-out: 50% Gal-7 loaded with ligand (ligand concentration)): ~4.5 µM
binding stoichiometry, Gal-3 molecules per KS molecule ([4]; D trend continues to Gal-3/KS molar ratio of ~6 to 8, both Gal-3 FL and CRD): ≤ 8
decrease of KS D value ([4]; upon addition of one mole equivalent of Gal-3): about 40%
Kd ([2]; 7 μM × 22 sites, assumes the same stoichiometry as KSDS, Gal-3 CRD, read-out: site-average microscopic KD): 154 µM
Kd ([2]; apparent affinity/avidity from average ∆δ vs ligand concentration, 20 μM Gal-3 CRD, 20 mM KPhos, pH 6.9, 30 °C, read-out: 50% change in chemical shift / 50% lectin bound (ligand concentration)): ~7 µM
Compound: keratan sulfate [KS]
